Reference: patent publication US20150320756A1, “TREATMENTS OF COCCIDIOSIS WITH INTRAMUSCULAR TRIAZINE COMPOSITIONS” (CEVA SANTE ANIMALE, priority 2012, published 2015)

Tests used:
Type in all cases: in vivo
[1] = Local and general tolerance of a single intramuscular injection of toltrazuril in 3-day old piglets (Example A)
Protocol: (§1) This target animal safety and efficacy study was conducted in a farm with known history of cocciodiosis. The main objective was to study the safety and efficacy of intramuscular injection of toltrazuril in comparison to the standard oral application. • Group 1: 8 piglets 3 days old were injected by a single intramuscular dose of toltrazuril (Dose=20 mg toltrazuril per kg bodyweight equivalent to 0.4 mL/kg bodyweight) on SD0. • Group 2: 8 piglets 3 days old were injected by one intramuscular dose of toltrazuril (60 mg toltrazuril per kg bodyweight equivalent to 1.2 mL/Kg bodyweight) on SD0 • Group 3: 8 piglets 3 days old were dosed orally with the standard commercial formulation of toltrazuril Cevazuril® (Dose=20 mg toltrazuril per kg bodyweight equivalent to 0.4 mL/Kg bodyweight) on SD0 • Group 4: 12 piglets 3 days old, left untreated.
(§2) All four (4) groups of piglets were injected on SD0 with iron (Gleptosil®) at the dose rate of 1 ml per piglet.

[2] = Local and general tolerance of intramuscular toltrazuril in 2 day-old piglets (Example B); settings: all tested doses (i.m. 20 and 40 mg/kg)
Protocol: (§3) Protocol • Group 1: 10 piglets 2 days old were injected with once intramuscularly dose of toltrazuril C629 (Dose=20 mg toltrazuril per kg bodyweight—equivalent to 0.4 mL/Kg bodyweight) on SD0 • Group 2: 11 piglets 2 days old were injected with once intramuscularly dose of toltrazuril C629 (Dose=40 mg toltrazuril per kg bodyweight a—equivalent to 0.8 mL/kg bodyweight) on SD0 • Group 3: 9 piglets 2 days old were dosed orally with the standard commercial formulation of toltrazuril Cevazuril® (Dose=20 mg toltrazuril per kg bodyweight—equivalent to 0.4 mL/Kg bodyweight) on SD0. • Group 4: 8 piglets, left untreated.
(§4) All four (4) groups of piglets were injected on SD0 with iron injection (Gleptosil®) at the dose rate of 1 ml per piglet. 3 days after treatment (on SD3), the piglets were orally challenged with a characterised strain of Isospora suis.
(§5) The following study parameters were used to assess the efficacy of the test products: • Local and general tolerance (for Groups 1 and 2) • Occurrence of diarrhoea and faecal consistency • Oocyst excretion • Bodyweight development • Serum concentrations of toltrazuril and its metabolite toltrazuril sulfone (e.g ponazuril) in Group 1, 2 and 3.

Isospora suis = test: Anti-coccidial efficacy in piglets orally challenged with Isospora suis (Example B)
Protocol: as §3, §4, §5

[3] = Pharmacokinetics: serum concentrations of toltrazuril and toltrazuril sulfone in 2 day-old piglets (Example B)
Protocol: as §3, §4, §5

[4] = Bodyweight development of piglets on a farm with known history of coccidiosis (Example A)
Protocol: as §1, §2

[5] = G1, G2: single i.m. 20 or 40 mg/kg on SD0, Isospora suis challenge on SD3

## Cc1cc(-n2c(=O)[nH]c(=O)n(C)c2=O)ccc1Oc1ccc(SC(F)(F)F)cc1 [toltrazuril]
[1]; piglets injected i.m. with 1.2 mL/kg bodyweight
  Time to disappearance of local reaction post injection: less than 1 week
[1]; piglets injected i.m. with 1.2 mL/kg bodyweight (60 mg/kg)
  Local reaction (oedema): limited local reaction (Oedema) in some piglets
[1]; single intramuscular doses up to 60 mg/kg, 3-day old piglets
  General tolerance: well tolerated
[1]; single intramuscular injection, 3-day old piglets
  Pain after injection: No pain
[2]
  Tolerance: well tolerated
Isospora suis; [5]
  Fecal consistency: unchanged
  Oocyst excretion: No oocyst excretion was observed
Isospora suis; G1, G2: single i.m. 20 or 40 mg/kg, infected piglets
  Weight gain versus control animals (G4): gained more weight than the control animals
[3]; after intramuscular application, piglets
  Absorption: well absorbed
[3]; metabolite after toltrazuril 20 mg/kg oral vs 20 or 40 mg/kg i.m.
  Toltrazuril sulfone (ponazuril) kinetics, oral (G3) versus intramuscular (G1 and G2): not statistically different
[3]; upon intramuscular injection of toltrazuril (FIGS. 4 and 5)
  Serum level of toltrazuril sulfone: rapid and sustained
[4]; intramuscularly treated piglets, at SD0+29 days
  Bodyweight gain versus control non treated piglets: +2 kg
[4]; single i.m. 20 or 60 mg/kg, 3-day old piglets
  Bodyweight development: normal
